Assay results: PubChem BioAssay (NCI)
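GI50: concentration for 50% inhibition of growth. The concentration for full growth arrest is given as TGI.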

Columns and labels:
Experiment in all cases: NCI tumour cell line growth inhibition, 384-well format
[1] = test system: COLO 205 colon
[2] = test system: 786-0 renal
[3] = test system: SF-539 CNS
[4] = test system: MDA-MB-435 melanoma
[5] = test system: SK-MEL-28 melanoma
[6] = test system: SK-OV-3 ovarian
[7] = test system: HL-60(TB) leukemia
[8] = test system: T-47D breast
[9] = test system: HCC-2998 colon
[10] = test system: SR leukemia
[11] = test system: SK-MEL-5 melanoma
[12] = test system: MOLT-4 leukemia
[13] = test system: TK-10 renal
[14] = test system: HCT-15 colon
[15] = test system: MALME-3M melanoma
[16] = test system: HCT-116 colon
[17] = test system: SN12C renal
[18] = test system: K-562 leukemia
[19] = test system: OVCAR-4 ovarian
[20] = test system: HOP-92 NSCLC
[21] = test system: U251 glioblastoma
[22] = test system: SF-268 CNS
[23] = test system: SNB-19 CNS
[24] = test system: OVCAR-3 ovarian
[25] = test system: OVCAR-5 ovarian
[26] = test system: MCF7 breast
[27] = test system: NCI-H226 lung
[28] = test system: NCI-H322M lung
[29] = test system: EKVX NSCLC
[30] = test system: SF-295 CNS
[31] = test system: UO-31 renal
[32] = test system: UACC-62 melanoma
[33] = test system: LOX IMVI melanoma
[34] = test system: A549 NSCLC
[35] = test system: NCI-H522 lung
[36] = test system: KM12 colon
[37] = test system: MDA-MB-468 breast
[38] = test system: M14 melanoma
[39] = test system: NCI-H23 lung
[40] = test system: HOP-62 NSCLC
[41] = test system: RPMI-8226 leukemia
[42] = test system: CCRF-CEM leukemia
[43] = test system: A498 renal
[44] = test system: RXF 393 renal
[45] = test system: HS 578T breast
[46] = test system: CAKI-1 renal
[47] = test system: BT-549 breast

## Cc1nc2ccc(-n3ncc(C(=O)c4cc5ccccc5[nH]4)c3N)cc2[nH]1
[1]
  GI50: 5.86 µM
  TGI: 30.2 µM
[2]
  GI50: 8.85 µM
  TGI: 26.7 µM
[3]
  GI50: 2.13 µM
  TGI: 10.5 µM
[4]
  GI50: 11.2 µM
  TGI: 42.9 µM
[5]
  GI50: 19.5 µM
  TGI: 58.3 µM
[6]
  GI50: 11.3 µM
  TGI: 30.6 µM
[7]
  GI50: 2.97 µM
  TGI: 12.3 µM
[8]
  GI50: 6.8 µM
  TGI: 19.3 µM
[9]
  GI50: 13.1 µM
  TGI: 30.8 µM
[10]
  GI50: 0.668 µM
  TGI: 1.58 µM
[11]
  GI50: 4.2 µM
  TGI: 17.4 µM
[12]
  GI50: 1.93 µM
  TGI: 5 µM
[13]
  GI50: 4.78 µM
  TGI: 20.5 µM
[14]
  GI50: 1.56 µM
  TGI: 13.4 µM
[15]
  GI50: 13.1 µM
  TGI: 33.8 µM
[16]
  GI50: 3.78 µM
  TGI: 16.1 µM
[17]
  GI50: 6.46 µM
  TGI: 45.9 µM
[18]
  GI50: 3.95 µM
  TGI: 14.3 µM
[19]
  GI50: 10.4 µM
  TGI: 40.2 µM
[20]
  GI50: 10.3 µM
  TGI: 30.3 µM
[21]
  GI50: 6.53 µM
  TGI: 25.5 µM
[22]
  GI50: 10.6 µM
  TGI: 55.9 µM
[23]
  GI50: 16 µM
  TGI: > 66.7 µM
[24]
  GI50: 10.7 µM
  TGI: 26 µM
[25]
  GI50: 8.84 µM
  TGI: > 82.6 µM
[26]
  GI50: 6.62 µM
  TGI: 24.8 µM
[27]
  GI50: 5.45 µM
  TGI: 29.5 µM
[28]
  GI50: 16.4 µM
  TGI: 38.9 µM
[29]
  GI50: 15.3 µM
  TGI: 41.1 µM
[30]
  GI50: 10.4 µM
  TGI: 26.9 µM
[31]
  GI50: 7.35 µM
  TGI: 34.5 µM
[32]
  GI50: 5.92 µM
  TGI: 18.6 µM
[33]
  GI50: 3.27 µM
  TGI: 8.34 µM
[34]
  GI50: 9.61 µM
  TGI: 56.8 µM
[35]
  GI50: 5.33 µM
  TGI: 17.6 µM
[36]
  GI50: 3.3 µM
  TGI: 12.3 µM
[37]
  GI50: 4.15 µM
  TGI: 16.7 µM
[38]
  GI50: 12.5 µM
  TGI: 28.4 µM
[39]
  GI50: 17.5 µM
  TGI: 36.4 µM
[40]
  GI50: 12.2 µM
  TGI: 29.6 µM
[41]
  GI50: 6.35 µM
  TGI: 17.3 µM
[42]
  GI50: 5.85 µM
  TGI: 18.7 µM
[43]
  GI50: 12.4 µM
  TGI: 33.5 µM
[44]
  GI50: 2.37 µM
  TGI: 10.5 µM
[45]
  GI50: 6.48 µM
  TGI: 26 µM
[46]
  GI50: 6.43 µM
  TGI: 39.8 µM
[47]
  GI50: 5.72 µM
  TGI: 20.7 µM
